From ChEMBL document CHEMBL3217650, “Discovery of novel selective Sigma-1 ligands as cognitive enhancers” (Medchemcomm, 2011)
Active and inactive are the calls of the source. The calls are words filed in the database; no cut-off is given here.

What was measured:
[1] = target: Sigma non-opioid intracellular receptor 1 (Homo sapiens, UniProt Q99720); experiment: Displacement of [3H]-pentazocine from human recombinant sigma-1 receptor expressed in CHO cells after 180 mins by beta counting analysis; assay type: cell-based
[2] = target: Kappa-type opioid receptor (Homo sapiens) (UniProt P41145); experiment: Binding affinity to kappa opioid receptor (unknown origin) at 10 uM by displacement assay relative to control
[3] = test system: Mus musculus; experiment: Antiamnesic activity in C57BL6/J mouse assessed as reduction of scopolamine-induced memory deficit at 0.03 to 1 mg/kg, ip administered 40 mins prior to acquisition trial by two-trial object recognition test; assay type: functional, organism-based
[4] = organism: Rattus norvegicus; experiment: Displacement of [3H]1,3-di-O-tolylguanidine from sigma-2 receptor in rat cerebral cortex at 10 uM relative to control; assay type: tissue-based
[5] = Intrinsic clearance in rat liver microsomes measured per mg of protein; assay type: ADME; details: read-out: CLH
[6] = target: Acetylcholinesterase (Homo sapiens) (UniProt P22303); experiment: Binding affinity to AChE (unknown origin) at 10 uM by displacement assay relative to control
[7] = Intrinsic clearance in mouse liver microsomes measured per mg of protein; assay type: ADME; details: read-out: CLH
[8] = Apparent permeability across apical to basolateral side in human Caco2 cells at 20 uM measured up to 3 hrs; assay type: ADME, cell-based; details: Caco-2
[9] = target: Mu-type opioid receptor (Homo sapiens) (UniProt P35372); experiment: Binding affinity to mu opioid receptor (unknown origin) at 10 uM by displacement assay relative to control
[10] = Ratio of drug level in brain to plasma in C57BL6/J mouse at 1 mg/kg, ip measured at 40 mins; assay type: ADME, organism-based; parameters: dose 1 mg/kg, route intraperitoneal; details: brain and plasma, read-out: BPR
[11] = target: D(3) dopamine receptor (Homo sapiens) (UniProt P35462); experiment: Binding affinity to dopamine D3 receptor (unknown origin) at 10 uM by displacement assay relative to control
[12] = target: Sodium-dependent noradrenaline transporter (Homo sapiens) (UniProt P23975); experiment: Binding affinity to NE transporter (unknown origin) at 10 uM by displacement assay relative to control
[13] = target: Sodium-dependent serotonin transporter (Homo sapiens) (UniProt P31645); experiment: Binding affinity to 5HT transporter (unknown origin) at 10 uM by displacement assay relative to control
[14] = target: T1, Alpha-2C adrenergic receptor (Homo sapiens) (UniProt P18825); experiment: Binding affinity to adrenergic alpha-2c receptor (unknown origin) at 10 uM by displacement assay relative to control
T1 sequence (whole entry): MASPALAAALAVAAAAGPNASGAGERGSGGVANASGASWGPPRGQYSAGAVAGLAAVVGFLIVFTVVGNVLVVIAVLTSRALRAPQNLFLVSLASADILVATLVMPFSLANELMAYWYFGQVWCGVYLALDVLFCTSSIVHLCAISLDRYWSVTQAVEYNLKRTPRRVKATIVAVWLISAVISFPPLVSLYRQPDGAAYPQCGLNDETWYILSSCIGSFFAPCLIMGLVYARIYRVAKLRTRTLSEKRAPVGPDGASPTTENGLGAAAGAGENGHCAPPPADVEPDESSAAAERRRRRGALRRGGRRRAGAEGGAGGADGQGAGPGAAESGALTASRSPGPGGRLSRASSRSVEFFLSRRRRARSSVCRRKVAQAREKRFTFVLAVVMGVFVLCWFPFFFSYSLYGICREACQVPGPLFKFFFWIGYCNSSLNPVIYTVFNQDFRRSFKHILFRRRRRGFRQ

[15] = target: Sodium-dependent dopamine transporter (Homo sapiens) (UniProt Q01959); experiment: Binding affinity to DA transporter (unknown origin) at 10 uM by displacement assay relative to control
[16] = target: Histamine H3 receptor (Homo sapiens) (UniProt Q9Y5N1); experiment: Binding affinity to histamine H3 receptor (unknown origin) at 10 uM by displacement assay relative to control
[17] = target: 5-hydroxytryptamine receptor 2A (Homo sapiens) (UniProt P28223); experiment: Binding affinity to 5HT-2a receptor (unknown origin) at 10 uM by displacement assay relative to control
[18] = target: D(4) dopamine receptor (Homo sapiens) (UniProt P21917); experiment: Binding affinity to dopamine D4 receptor (unknown origin) at 10 uM by displacement assay relative to control
[19] = target: Adrenergic receptor alpha-1 (Homo sapiens) (UniProt P35348+P25100+P35368); experiment: Binding affinity to adrenergic alpha-1 receptor (unknown origin) at 10 uM by displacement assay relative to control; assay type: protein assay
[20] = target: D(2) dopamine receptor (Homo sapiens) (UniProt P14416); experiment: Binding affinity to dopamine D2 receptor (unknown origin) at 10 uM by displacement assay relative to control
[21] = Octanol-water distribution coefficient, log D of the compound at pH 7.4; assay type: physicochemical
[22] = Dissociation constant, pKa of the compound; assay type: physicochemical
[23] = target: Opioid receptor (Rattus norvegicus) (UniProt P33533+P34975+P33535); experiment: Displacement of [3H]-naloxone from opioid receptor in rat cerebral cortex at 10 uM relative to control; assay type: tissue-based
[24] = target: 5-hydroxytryptamine receptor 6 (Homo sapiens) (UniProt P50406); experiment: Binding affinity to 5HT-6 receptor (unknown origin) at 10 uM by displacement assay relative to control
[25] = target: 5-hydroxytryptamine receptor 7 (Homo sapiens) (UniProt P34969); experiment: Binding affinity to 5HT-7 receptor (unknown origin) at 10 uM by displacement assay relative to control
[26] = target: Histamine H1 receptor (Homo sapiens) (UniProt P35367); experiment: Binding affinity to histamine H1 receptor (unknown origin) at 10 uM by displacement assay relative to control
[27] = organism: Homo sapiens; experiment: Binding affinity to […] channel (unknown origin) at 10 uM by displacement assay relative to control
[28] = organism: Homo sapiens; experiment: Binding affinity to Ca2+ channel (unknown origin) at 10 uM by displacement assay relative to control
[29] = target: 5-hydroxytryptamine receptor 1A (Homo sapiens) (UniProt P08908); experiment: Binding affinity to 5-HT1a receptor (unknown origin) at 10 uM by displacement assay relative to control
[30] = target: Muscarinic acetylcholine receptor (Rattus norvegicus) (UniProt P08482+P08483+P08485+P08911+P10980); experiment: Displacement of [3H]-QNB from muscarinic receptor in rat cerebral cortex at 10 uM relative to control; assay type: tissue-based
[31] = target: Alpha-2B adrenergic receptor (Homo sapiens) (UniProt P18089); experiment: Binding affinity to adrenergic alpha-2b receptor (unknown origin) at 10 uM by displacement assay relative to control
[32] = organism: Rattus norvegicus; experiment: Displacement of [3H]1,3-di-O-tolylguanidine from sigma-2 receptor in rat cerebral cortex; assay type: tissue-based; details: concentration not given here

Sequence of Sigma non-opioid intracellular receptor 1 (Q99720 whole entry): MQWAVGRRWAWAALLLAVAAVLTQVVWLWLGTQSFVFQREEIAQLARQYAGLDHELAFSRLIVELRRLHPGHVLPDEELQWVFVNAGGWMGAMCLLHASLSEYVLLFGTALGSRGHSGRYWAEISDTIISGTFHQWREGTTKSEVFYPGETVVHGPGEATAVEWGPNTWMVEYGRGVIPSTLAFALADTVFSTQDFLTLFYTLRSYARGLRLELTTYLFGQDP
Sequence of 5-hydroxytryptamine receptor 2A (Homo sapiens) (P28223 whole entry): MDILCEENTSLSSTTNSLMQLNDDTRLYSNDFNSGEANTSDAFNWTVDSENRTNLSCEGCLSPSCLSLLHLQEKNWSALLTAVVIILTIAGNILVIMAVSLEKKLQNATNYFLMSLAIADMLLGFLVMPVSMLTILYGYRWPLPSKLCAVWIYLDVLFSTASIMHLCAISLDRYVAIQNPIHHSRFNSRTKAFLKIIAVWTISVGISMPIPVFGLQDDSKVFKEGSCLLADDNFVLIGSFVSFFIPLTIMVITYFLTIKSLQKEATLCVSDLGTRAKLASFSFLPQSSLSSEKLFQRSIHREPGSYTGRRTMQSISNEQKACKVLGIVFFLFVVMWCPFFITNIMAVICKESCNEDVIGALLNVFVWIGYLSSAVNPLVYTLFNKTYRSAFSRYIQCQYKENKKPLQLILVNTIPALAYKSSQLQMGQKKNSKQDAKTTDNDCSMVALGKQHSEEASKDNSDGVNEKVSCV
Sequence of D(4) dopamine receptor (Homo sapiens) (P21917 whole entry): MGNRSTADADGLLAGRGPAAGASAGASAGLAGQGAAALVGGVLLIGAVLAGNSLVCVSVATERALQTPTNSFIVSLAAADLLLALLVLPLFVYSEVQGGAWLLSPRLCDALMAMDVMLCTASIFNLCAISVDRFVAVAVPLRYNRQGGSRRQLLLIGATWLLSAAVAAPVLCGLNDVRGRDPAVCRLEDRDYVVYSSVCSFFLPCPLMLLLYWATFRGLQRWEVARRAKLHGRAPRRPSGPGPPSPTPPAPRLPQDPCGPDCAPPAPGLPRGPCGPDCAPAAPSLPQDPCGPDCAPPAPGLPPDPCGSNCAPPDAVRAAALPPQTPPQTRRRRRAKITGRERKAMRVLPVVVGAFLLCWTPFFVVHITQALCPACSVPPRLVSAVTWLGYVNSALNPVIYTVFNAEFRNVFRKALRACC
Sequence of Sodium-dependent dopamine transporter (Homo sapiens) (Q01959 whole entry): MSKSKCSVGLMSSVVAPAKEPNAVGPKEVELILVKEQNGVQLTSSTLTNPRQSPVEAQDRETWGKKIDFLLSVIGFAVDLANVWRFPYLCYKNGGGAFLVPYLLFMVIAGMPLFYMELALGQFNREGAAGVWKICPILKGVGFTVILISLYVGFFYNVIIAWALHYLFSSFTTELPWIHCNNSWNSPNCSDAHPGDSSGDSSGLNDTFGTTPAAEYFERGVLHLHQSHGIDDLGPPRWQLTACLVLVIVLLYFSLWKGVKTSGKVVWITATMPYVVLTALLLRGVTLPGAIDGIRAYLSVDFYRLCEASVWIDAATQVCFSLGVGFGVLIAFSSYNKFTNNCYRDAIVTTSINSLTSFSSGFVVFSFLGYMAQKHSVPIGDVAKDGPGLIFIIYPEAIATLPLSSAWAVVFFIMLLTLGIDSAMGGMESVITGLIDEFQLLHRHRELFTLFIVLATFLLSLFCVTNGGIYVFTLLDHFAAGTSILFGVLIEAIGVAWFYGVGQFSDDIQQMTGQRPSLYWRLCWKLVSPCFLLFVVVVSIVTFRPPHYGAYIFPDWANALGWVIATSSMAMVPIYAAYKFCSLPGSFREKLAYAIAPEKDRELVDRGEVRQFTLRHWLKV
Sequence of Histamine H1 receptor (Homo sapiens) (P35367 whole entry): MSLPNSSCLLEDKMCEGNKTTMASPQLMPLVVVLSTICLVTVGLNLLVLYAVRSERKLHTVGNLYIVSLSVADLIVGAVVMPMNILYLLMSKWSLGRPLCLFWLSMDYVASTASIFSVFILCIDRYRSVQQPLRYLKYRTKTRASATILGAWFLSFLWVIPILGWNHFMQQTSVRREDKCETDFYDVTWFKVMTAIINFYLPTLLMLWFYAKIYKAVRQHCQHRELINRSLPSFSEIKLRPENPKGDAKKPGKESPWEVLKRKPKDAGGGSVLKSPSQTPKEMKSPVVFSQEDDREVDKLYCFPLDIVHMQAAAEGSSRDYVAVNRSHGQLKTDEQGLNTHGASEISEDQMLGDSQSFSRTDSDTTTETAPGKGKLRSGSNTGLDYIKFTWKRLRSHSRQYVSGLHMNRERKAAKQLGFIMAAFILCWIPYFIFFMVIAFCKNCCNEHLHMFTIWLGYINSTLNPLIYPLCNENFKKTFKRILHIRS
Sequence of Mu-type opioid receptor (Homo sapiens) (P35372 whole entry): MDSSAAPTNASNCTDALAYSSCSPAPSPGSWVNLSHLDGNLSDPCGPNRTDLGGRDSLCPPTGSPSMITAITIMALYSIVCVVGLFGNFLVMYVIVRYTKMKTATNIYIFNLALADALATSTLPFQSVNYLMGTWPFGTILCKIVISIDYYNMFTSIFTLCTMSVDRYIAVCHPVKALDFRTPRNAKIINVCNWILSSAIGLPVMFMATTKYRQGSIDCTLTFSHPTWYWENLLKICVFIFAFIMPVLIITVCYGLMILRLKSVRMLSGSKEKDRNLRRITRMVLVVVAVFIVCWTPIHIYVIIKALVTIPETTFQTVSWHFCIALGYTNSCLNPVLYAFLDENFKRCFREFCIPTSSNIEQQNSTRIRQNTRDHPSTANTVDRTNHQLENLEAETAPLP
Sequence of Sodium-dependent noradrenaline transporter (Homo sapiens) (P23975 whole entry): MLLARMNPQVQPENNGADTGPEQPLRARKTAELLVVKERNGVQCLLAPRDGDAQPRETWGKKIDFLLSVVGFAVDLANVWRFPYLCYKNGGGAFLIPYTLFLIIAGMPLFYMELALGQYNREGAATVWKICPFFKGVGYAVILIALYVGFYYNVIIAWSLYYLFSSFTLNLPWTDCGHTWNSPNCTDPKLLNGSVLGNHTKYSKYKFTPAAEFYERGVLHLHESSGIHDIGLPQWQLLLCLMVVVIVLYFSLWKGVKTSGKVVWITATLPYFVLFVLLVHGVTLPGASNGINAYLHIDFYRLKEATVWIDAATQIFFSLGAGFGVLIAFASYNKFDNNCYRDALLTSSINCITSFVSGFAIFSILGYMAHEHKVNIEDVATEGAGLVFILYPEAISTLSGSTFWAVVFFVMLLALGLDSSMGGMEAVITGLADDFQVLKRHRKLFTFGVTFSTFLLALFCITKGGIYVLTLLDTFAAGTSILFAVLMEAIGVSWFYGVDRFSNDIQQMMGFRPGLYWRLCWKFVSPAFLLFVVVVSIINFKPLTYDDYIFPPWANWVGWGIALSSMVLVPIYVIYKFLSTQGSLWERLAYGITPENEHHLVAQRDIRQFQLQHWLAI
Sequence of Kappa-type opioid receptor (Homo sapiens) (P41145 whole entry): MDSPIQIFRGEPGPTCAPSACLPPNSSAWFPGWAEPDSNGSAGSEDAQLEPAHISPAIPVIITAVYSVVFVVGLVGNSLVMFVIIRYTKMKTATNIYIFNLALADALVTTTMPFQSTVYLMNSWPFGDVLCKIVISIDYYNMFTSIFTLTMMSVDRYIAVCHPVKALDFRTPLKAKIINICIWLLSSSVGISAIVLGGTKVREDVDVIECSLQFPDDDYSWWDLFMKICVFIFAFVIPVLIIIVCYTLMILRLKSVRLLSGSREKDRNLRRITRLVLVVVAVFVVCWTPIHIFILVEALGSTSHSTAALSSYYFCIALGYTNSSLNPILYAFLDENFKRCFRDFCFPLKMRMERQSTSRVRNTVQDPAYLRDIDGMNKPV
Sequence of 5-hydroxytryptamine receptor 6 (Homo sapiens) (P50406 whole entry): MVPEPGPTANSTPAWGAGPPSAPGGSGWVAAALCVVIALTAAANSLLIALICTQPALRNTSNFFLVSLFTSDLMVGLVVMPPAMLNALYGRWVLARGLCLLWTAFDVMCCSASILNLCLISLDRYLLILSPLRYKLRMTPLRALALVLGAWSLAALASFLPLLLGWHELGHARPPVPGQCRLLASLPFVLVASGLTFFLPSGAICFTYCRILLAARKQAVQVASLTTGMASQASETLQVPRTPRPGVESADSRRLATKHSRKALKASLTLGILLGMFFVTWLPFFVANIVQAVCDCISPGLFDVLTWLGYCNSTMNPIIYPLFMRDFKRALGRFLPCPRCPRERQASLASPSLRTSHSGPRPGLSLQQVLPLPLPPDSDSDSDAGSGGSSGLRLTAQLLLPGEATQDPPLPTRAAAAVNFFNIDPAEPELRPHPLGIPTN
Sequence of D(2) dopamine receptor (Homo sapiens) (P14416 whole entry): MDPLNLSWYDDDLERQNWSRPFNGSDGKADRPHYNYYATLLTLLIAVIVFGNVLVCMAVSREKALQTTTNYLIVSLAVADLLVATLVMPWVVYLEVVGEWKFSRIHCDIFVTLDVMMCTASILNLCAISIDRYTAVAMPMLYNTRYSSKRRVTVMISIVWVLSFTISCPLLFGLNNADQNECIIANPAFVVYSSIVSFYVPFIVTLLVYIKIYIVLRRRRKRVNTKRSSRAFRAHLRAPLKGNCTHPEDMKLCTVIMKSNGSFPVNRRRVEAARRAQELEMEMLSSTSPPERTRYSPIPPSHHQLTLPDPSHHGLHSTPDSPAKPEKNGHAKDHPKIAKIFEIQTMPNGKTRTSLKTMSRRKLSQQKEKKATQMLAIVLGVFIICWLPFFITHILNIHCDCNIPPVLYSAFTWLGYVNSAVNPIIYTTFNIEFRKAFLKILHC
Sequence of 5-hydroxytryptamine receptor 1A (Homo sapiens) (P08908 whole entry): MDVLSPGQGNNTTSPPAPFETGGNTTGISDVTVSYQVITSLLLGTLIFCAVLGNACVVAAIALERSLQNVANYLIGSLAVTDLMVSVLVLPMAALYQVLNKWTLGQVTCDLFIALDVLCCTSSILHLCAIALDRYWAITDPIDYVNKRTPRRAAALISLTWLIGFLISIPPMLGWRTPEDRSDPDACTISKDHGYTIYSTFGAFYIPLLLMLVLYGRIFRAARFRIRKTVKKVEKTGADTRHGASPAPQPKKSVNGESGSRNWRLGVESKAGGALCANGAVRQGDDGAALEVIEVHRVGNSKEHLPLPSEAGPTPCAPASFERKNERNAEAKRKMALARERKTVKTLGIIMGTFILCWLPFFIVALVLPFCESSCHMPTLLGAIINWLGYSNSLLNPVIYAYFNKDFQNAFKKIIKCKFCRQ

Compound	Ki [1] [nM]	microsomal CLint [5] [µL/min/mg]	inhibition [17] [%]	logD ([21]; read-out: logD)	pKa [22]	further results
C=CCN1CC[C@]2(C)c3cc(O)ccc3C[C@@H]1[C@@H]2C	158	313	–	–	–	inhibition [2]: > 90%; Activity [3]: Active; inhibition [4]: 29%; inhibition [6]: 50%; microsomal CLint [7]: 17 µL/min/mg; Papp A→B at 3 h, 20 µM [8]: 20.2 ×10⁻⁶ cm/s; inhibition [9]: 50%; Kp at 40 min [10]: 5.64
COc1ccc(CCN2CCN(CCCc3ccccc3)CC2)cc1OC	–	–	50	–	–	inhibition [11]: 50%; inhibition [12]: > 90%; inhibition [13]: 50%; inhibition [14]: 50%; inhibition [4]: 99%; inhibition [15]: 50%; inhibition [16]: 50%; inhibition [18]: 50%; inhibition [19]: > 90%; inhibition [20]: 50%
O=C(NC1CCC(N2CCCCC2)CC1)[C@H]1C[C@@H]1c1ccccc1 (mixture of isomers)	1260	–	–	0.9	9.6	–
O=C(NCCCNC1CCCCC1)[C@H]1C[C@@H]1c1ccccc1 (racemic) [listing 1 of 2 here]	200	–	–	–	10.1	logD [21]: 1.3
CCN(CC)CCNC(=O)[C@H]1C[C@@H]1c1ccccc1 (racemic)	126	–	50	0.6	8.9	inhibition [23]: > 90%
CC(C)N(CCNC(=O)[C@H]1C[C@@H]1c1ccccc1)C(C)C (racemic)	63.1	> 300	50	1	9.7	–
O=C(NCCN1CCCC1)[C@H]1C[C@@H]1c1ccccc1 (racemic)	63.1	–	> 90	0.9	9.2	–
CN(C)CC(C)(C)CNC(=O)[C@H]1C[C@@H]1c1ccccc1 (racemic)	398	–	–	0.8	8.9	–
O=C(NCCN1CCN(Cc2ccccc2)CC1)[C@H]1C[C@@H]1c1ccccc1 (racemic)	15.8	122	50	2.8	–	inhibition [24]: 50%; inhibition [12]: 50%; inhibition [25]: 50%; inhibition [2]: 50%; inhibition [15]: 50%; inhibition [9]: 50%; inhibition [18]: > 90%
O=C(NCCN1CCN(Cc2ccc(Cl)c(Cl)c2)CC1)[C@H]1C[C@@H]1c1ccccc1 (racemic)	10	200	> 90	> 4	–	inhibition [26]: 50%; inhibition [27]: 50%
O=C(NCCN1CCN(Cc2c(F)cccc2Cl)CC1)[C@H]1C[C@@H]1c1ccccc1 (racemic)	25.1	283	–	3.7	–	–
O=C(NCCN1CCN(C(=O)c2c(F)cccc2Cl)CC1)[C@H]1C[C@@H]1c1ccccc1 (racemic)	631	81	> 90	2.3	–	–
O=C(NCCCN1CCN(Cc2c(F)cccc2Cl)CC1)[C@H]1C[C@@H]1c1ccccc1 (racemic)	25.1	305	> 90	3.5	–	inhibition [28]: > 90%; inhibition [26]: 50%; inhibition [14]: 50%; inhibition [19]: 50%
O=C([C@H]1C[C@@H]1c1ccccc1)N1CCN(c2ccccc2)CC1 (racemic)	1260	–	–	3.8	< 2.5	–
O=C([C@H]1C[C@@H]1c1ccccc1)N1CCC(N2CCCC2)CC1 (racemic)	200	25	–	0.7	9.3	–
O=C([C@H]1C[C@@H]1c1ccc(F)cc1)N1CCC(N2CCCCC2)CC1 (racemic)	100	–	–	–	–	inhibition [4]: 61%
O=C([C@H]1C[C@@H]1c1ccc(F)cc1)N1CCC(CNCC2CCCCC2)CC1 (racemic)	79.4	17	–	–	–	inhibition [27]: 50%; inhibition [29]: 50%; inhibition [30]: 50%
O=C(NCCCNC1CCCCC1)[C@H]1C[C@@H]1c1ccccc1 (racemic) [listing 2 of 2 here]	–	–	50	–	–	inhibition [28]: > 90%; inhibition [19]: 50%
O=C(NCCCNC1CCCCC1)[C@H]1C[C@@H]1c1ccccc1 (stereo in doubt; (+)-1) [listing 1 of 2 here]	158	147	–	–	–	–
O=C(NCCCNC1CCCCC1)[C@H]1C[C@@H]1c1ccccc1 (stereo in doubt; (+)-1) [listing 2 of 2 here]	–	–	> 90	–	–	inhibition [28]: 50%; inhibition [27]: 50%; inhibition [14]: 50%; inhibition [31]: 50%; inhibition [32]: 6.6%; inhibition [19]: 50%
O=C(NCCCNC1CCCCC1)[C@H]1C[C@@H]1c1ccccc1 (stereo in doubt; (-)-1) [listing 1 of 2 here]	158	–	–	1.1	–	–
O=C(NCCCNC1CCCCC1)[C@H]1C[C@@H]1c1ccccc1 (stereo in doubt; (-)-1) [listing 2 of 2 here]	–	–	–	–	–	inhibition [27]: 50%
